Entries after “also recorded” stand apart in the source; their conditions may differ.
Experiments:
PARP [1] = assay: Immunoblotting of protein PARylation in cells after MNNG or H2O2 treatment; format: cell-based, human; settings: for H2O2-induced PARP activation (immunoblotting): 1 μM treatment
Source text: We sought to develop an approach towards a global characterization of Asp/Glu-ADP-ribosylation. […] The major cellular enzymatic activity for degrading PAR is from poly-ADP-ribose glycohydrolase (PARG)^2.
Cells and Reagents: HCT116 and HEK293T cells were purchased from ATCC and were maintained in Dulbecco's modified Eagle's medium (DMEM) supplemented with 10% fetal bovine serum. PARP inhibitors were purchased from Selleck. […] Other chemicals and reagents were obtained from Sigma unless indicated otherwise.
Immunoblotting analysis: Samples were subjected to electrophoresis using the standard SDS-PAGE method. Proteins were transferred to a nitrocellulose membrane (Whatman). Membranes were blocked with a TBST buffer (25 mM Tris-HCl, pH 7.5, 150 mM NaCl, 0.05% Tween 20) containing 3% nonfat dried milk, and probed overnight with primary antibodies at 4° C. and for 1 h at RT with peroxidase-conjugated secondary antibodies. Blots were developed using enhanced chemiluminescence, exposed on autoradiograph film and developed using standard methods.

PARP [2] = assay: SILAC quantitative mass spectrometric analysis of the Asp/Glu-ADP-ribosylated proteome in HCT116 shPARG cells; format: cell-based, human; settings: for change in protein Asp/Glu-ADP-ribosylation compared with that of Olaparib: 1 μM
Method: SILAC cell culture: Cells (HCT116 shPARG) were grown in the SILAC media as described previously^23. Both light and heavy DMEM were supplemented with 10% dialyzed FBS (Invitrogen). Where indicated, cells were pretreated with 1 μM Olaparib for 40 min and were stimulated with 2 mM H2O2 for 5 min We performed two experiments using this experimental design with single labeling with Lys (sample digested with Lys-C) or double labeling with Lys and Arg (sample digested with trypsin). Each experiment was composed of two technical replicate analyses. The same experiment (Lys labeling only) was repeated for four other PARP inhibitors, including A966492 (1 μM), AG14361 (1 μM), Iniparib (50 μM) and 3-AB (50 μM).
Sample preparation for mass spectrometric analysis: Cells were lysed in SDS lysis buffer (1% SDS, 10 mM HEPES pH 7.0, 2 mM MgCl2, 500 U Benzonase). Lysates were washed with SDS lysis buffer for three times using centricon ultrafiltration units (MWCO=10,000 Da, Millipore). Lysates were reduced by adding DTT to a final concentration of 3 mM, followed by incubation at room temperature for 20 min Cysteines were alkylated by adding iodoacetamide to a final concentration of 50 mM, followed by incubation in the dark for 20 min Lysates were digested with LysC (Wako) or trypsin (Promega) at a 1:100 (enzyme:substrate) ratio for 2 hrs at RT. pH of the lysates were adjusted to 8.5 and the lysates were incubated with m-aminophenylborinic acid agarose for 1 hr at RT. Beads were washed with the SDS wash buffer (1% SDS, 100 mM HEPES pH 8.5, 150 mM NaCl) for three times, and then the wash buffer (100 mM HEPES pH 8.5, 150 mM NaCl) for five times. Beads were incubated with 0.5 M NH2OH overnight. Released peptides were desalted on SepPak C18 columns (Waters) according to manufacturer's instructions.
Mass spectrometry analysis and data processing: Samples were analyzed by LC-MS/MS on an LTQ-Velos Pro Orbitrap mass spectrometer (Thermo Fischer Scientific, San Jose, Calif.) using a top twenty method^23. MS/MS spectra were searched against a composite database of the human IPI protein database and its reversed complement using the Sequest algorithm. Search parameters allowed for a static modification of 57.02146 Da for Cys and a dynamic modification of addition of 15.0109 Da to Asp and Glu, and, when applicable, the stable isotope (10.00827 Da) and (8.01420 Da) on Arg and Lys, respectively. […] Localization of ADP-ribosylation sites was assessed by the ModScore algorithm based on the observation of site-specific fragment ions^25. Sites with scores≧13 (p≦0.05) were considered localized. Peptide quantification was performed as previously described^23 and ADP-ribosylation motifs were extracted using the Motif-X algorithm using a significance threshold of P<0.001^26.

tankyrase = settings: cited from earlier work
[3] = 1 μM Olaparib, 2 mM H2O2, HCT116 shPARG

## NC(=O)c1cccc2[nH]c(-c3ccc([C@@H]4CCCN4)cc3F)nc12 [A96692]
PARP [1]
  H2O2-induced PARP activation (immunoblotting): potently inhibited
PARP [2]
  change in protein Asp/Glu-ADP-ribosylation compared with that of Olaparib: correlated well

## CN(C)Cc1ccc(-c2nc3cccc4c3n2CCNC4=O)cc1 [AG14361]
PARP [1]
  H2O2-induced PARP activation (immunoblotting): potently inhibited
PARP [2]
  change in protein Asp/Glu-ADP-ribosylation compared with that of Olaparib: correlated well

## NC(=O)c1ccc(I)c([N+](=O)[O-])c1 [Iniparib]
PARP [1]; 50 μM
  H2O2-induced hyper-PARylation / PARP activity (immunoblotting): little effect
PARP [2]; Iniparib 50 μM
  change in ADP-ribosylation level of most of the identified peptides: less than two fold
  decrease of a peptide from the RNA helicase DDX21: about 4 fold
  effect on PARP activity in intact cells: negligible effect; also recorded: failed to inhibit PARP
PARP [2]; Iniparib 50 μM, 3-AB 50 μM
  potency relative to 3-AB: lower than the prototype PARP inhibitor 3-AB

## O=C(c1cc(Cc2n[nH]c(=O)c3ccccc23)ccc1F)N1CCN(C(=O)C2CC2)CC1 [Olaparib]
PARP [1]; PARG-depleted cells, pretreatment with the inhibitor
  increased PARylation after MNNG or H2O2 treatment: blocked
PARP [2]; 1 μM Olaparib
  decrease of a peptide from the RNA helicase DDX21: more than 11 fold
PARP [2]; 1 μM Olaparib 40 min pretreatment, 2 mM H2O2 5 min, HCT116 shPARG
  modified peptides whose intensity decreased by more than two-fold: more than 81%
PARP [2]; [3]
  ADP-ribosylation of two evolutionarily conserved Glu residues on PCNA: dramatically decreased
  ADP-ribosylation of two tankyrase substrates, CASC3 and BLZF1: little change
  decrease in level of PARP1 automodified peptide comprising E483: approximately 120 fold
PARP [2]; quantitative mass spectrometric analysis
  sensitivity of the majority of PARylation events to treatment: sensitive
tankyrase
  inhibition of tankyrase: does not inhibit

From patent US9097722B2, “PARP substrates and biomarkers” (Board of Regents, The University of Texas System, priority 2012, dated 2015)
